In article PMC9147192, “Small Molecule Arranged Thermal Proximity Coaggregation (smarTPCA)—A Novel Approach to Characterize Protein–Protein Interactions in Living Cells by Similar Isothermal Dose–Responses” (International Journal of Molecular Sciences, 2022):
“And” between values parts separate entries of the source, which are not always exact repeats. Equal entries are not always repeated.

Experiments:
[1] = target: T1, MAPK14 (Homo sapiens, UniProt Q16539); assay: CETSA in living HL-60 cells, immunoblot; assay type: cell-based
Protocol: First, we conducted CETSA experiments according to Jafari et al.. […] Subsequent SDS-PAGE and immunoblotting were performed according to optimized conditions allowing for parallel detection of MAPK14, MAPKAPK2, MAPKAPK3, and GSK-3α (Supplementary Figure S1).
HL-60 cells (ATCC No. CCL-240) were expanded to about […] in 80 mL cell culture medium (RPMI-1640 supplemented with 10% (v/v) FBS, 1% (v/v) penicillin-streptomycin and 1% (v/v) L-glutamine solution) and divided into four aliquots (20 mL each, 25 million cells per flask). […] The same volume of DMSO was added to the remaining aliquot serving as the vehicle (DMSO) control. After incubation (1 h, 37 °C, 5% CO2, in cell culture CO2 incubator), the cell suspensions were transferred into 50 mL conical tubes, cell number and viability were determined, and after centrifugation (300 relative centrifugal force (rcf), 3 min, room temperature (r.t.)), the supernatants were completely removed and discarded. The cells were washed using 20 mL Dulbecco’s phosphate-buffered saline (PBS), respectively, by resuspension and centrifugation (300 rcf, 3 min, r.t.). After the complete removal of the supernatants, the cells were transferred into pre-weighed 2 mL Eppendorf tubes using 0.5 mL PBS (r.t.), respectively, for resuspending. After centrifugation (300 rcf, 3 min, r.t.) and removing as much as possible of the supernatants, the cell wet weights were determined.
The suspensions were shortly centrifuged (1 s or less) using a benchtop centrifuge that was equipped with an inset for PCR tubes to release trapped air and to achieve an even liquid level without pelleting the cells. The 100 µL cell suspensions were then temperature treated by a 7 min pre-incubation at r.t., a 3 min incubation at the following different temperatures in the PCR cycler (DNA Engine Tetrad 2, lid temperature 70 °C, gradient block 1: 36–55 °C, gradient block 2: 48–67 °C), and a 3 min post-incubation at r.t. in a metal heating block for uniform heat dissipation.
The cells were lysed by four freeze/thaw cycles consisting of thawing the samples (in a heat block set to 25 °C and shaking at 1250 rpm) accompanied by mixing them several times by inversion and then shock freezing them again in liquid nitrogen. The resulting lysates were kept cold (on ice or 4 °C) from then on. After centrifugation (20,000 rcf, 30 min, 4 °C) to pellet the cell debris together with precipitated and aggregated proteins, the supernatants were recovered and, after determining the total protein concentration (Pierce 660 nm Protein Assay, BSA as standard), the resulting cell extracts containing the fraction of soluble, non-denatured proteins were shock frozen in liquid nitrogen and stored at −80 °C.
For each sample set comprising either ten temperature range samples or ten compound concentration range samples, the same volume of the cell extracts containing the fraction of soluble, non-denatured proteins was used for further analysis. This volume was determined using the two lowest temperature samples (36.5 and 41.2 °C) per temperature range sample set so that they contained an average of 5 µg total protein (e.g., 2.78 µL for all temperature range samples of a sample set whose two lowest temperature samples contain an average of 1.8 mg/mL protein). For the compound concentration range experiments, all samples of a set were used for averaging.

[2] = target: T1, MAPK14; assay: TPP-CCR in living HL-60 cells; conditions: […] °C, TMT-MS
[3] = target: MAPKAPK3 (Homo sapiens, UniProt Q16644); assay: TPP-CCR in living HL-60 cells; conditions: […] °C, TMT-MS
[4] = target: MAPKAPK2 (Homo sapiens, UniProt P49137); assay: TPP-CCR in living HL-60 cells; conditions: […] °C, TMT-MS
[5] = target: MYLK (Homo sapiens, UniProt Q15746); assay: TPP-CCR in living HL-60 cells
[6] = target: MRPS34 (Homo sapiens, UniProt P82930); assay: TPP-CCR in living HL-60 cells
[7] = system: MAPKAPK2; design: method as in PMID 23398362; conditions: cited from earlier work
[8] = system: MAPK14; conditions: cited from earlier work
[9] = living HL-60 cells, […] °C, TMT-MS

T1 sequence (Q16539 whole entry): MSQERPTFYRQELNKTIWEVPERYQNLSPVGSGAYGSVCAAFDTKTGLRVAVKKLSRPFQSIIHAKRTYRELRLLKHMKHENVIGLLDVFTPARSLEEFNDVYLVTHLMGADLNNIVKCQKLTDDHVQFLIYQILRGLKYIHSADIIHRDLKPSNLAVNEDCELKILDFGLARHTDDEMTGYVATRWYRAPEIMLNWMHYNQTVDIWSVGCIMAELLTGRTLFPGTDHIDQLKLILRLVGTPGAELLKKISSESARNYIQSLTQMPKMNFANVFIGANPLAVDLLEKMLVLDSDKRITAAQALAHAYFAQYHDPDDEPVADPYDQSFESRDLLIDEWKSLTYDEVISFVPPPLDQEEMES
Sequence of MYLK (Q16539 2-360 partner limits assumed): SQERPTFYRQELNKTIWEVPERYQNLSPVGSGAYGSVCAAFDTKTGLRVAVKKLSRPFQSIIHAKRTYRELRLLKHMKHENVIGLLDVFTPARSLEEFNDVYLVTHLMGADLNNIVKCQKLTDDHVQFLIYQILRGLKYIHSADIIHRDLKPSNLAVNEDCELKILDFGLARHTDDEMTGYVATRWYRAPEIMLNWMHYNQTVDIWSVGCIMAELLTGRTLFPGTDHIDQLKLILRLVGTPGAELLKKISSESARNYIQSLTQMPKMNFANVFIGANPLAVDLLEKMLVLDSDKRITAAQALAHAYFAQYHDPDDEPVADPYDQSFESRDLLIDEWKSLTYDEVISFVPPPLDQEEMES
Sequence of MYLK (Q15746 whole entry): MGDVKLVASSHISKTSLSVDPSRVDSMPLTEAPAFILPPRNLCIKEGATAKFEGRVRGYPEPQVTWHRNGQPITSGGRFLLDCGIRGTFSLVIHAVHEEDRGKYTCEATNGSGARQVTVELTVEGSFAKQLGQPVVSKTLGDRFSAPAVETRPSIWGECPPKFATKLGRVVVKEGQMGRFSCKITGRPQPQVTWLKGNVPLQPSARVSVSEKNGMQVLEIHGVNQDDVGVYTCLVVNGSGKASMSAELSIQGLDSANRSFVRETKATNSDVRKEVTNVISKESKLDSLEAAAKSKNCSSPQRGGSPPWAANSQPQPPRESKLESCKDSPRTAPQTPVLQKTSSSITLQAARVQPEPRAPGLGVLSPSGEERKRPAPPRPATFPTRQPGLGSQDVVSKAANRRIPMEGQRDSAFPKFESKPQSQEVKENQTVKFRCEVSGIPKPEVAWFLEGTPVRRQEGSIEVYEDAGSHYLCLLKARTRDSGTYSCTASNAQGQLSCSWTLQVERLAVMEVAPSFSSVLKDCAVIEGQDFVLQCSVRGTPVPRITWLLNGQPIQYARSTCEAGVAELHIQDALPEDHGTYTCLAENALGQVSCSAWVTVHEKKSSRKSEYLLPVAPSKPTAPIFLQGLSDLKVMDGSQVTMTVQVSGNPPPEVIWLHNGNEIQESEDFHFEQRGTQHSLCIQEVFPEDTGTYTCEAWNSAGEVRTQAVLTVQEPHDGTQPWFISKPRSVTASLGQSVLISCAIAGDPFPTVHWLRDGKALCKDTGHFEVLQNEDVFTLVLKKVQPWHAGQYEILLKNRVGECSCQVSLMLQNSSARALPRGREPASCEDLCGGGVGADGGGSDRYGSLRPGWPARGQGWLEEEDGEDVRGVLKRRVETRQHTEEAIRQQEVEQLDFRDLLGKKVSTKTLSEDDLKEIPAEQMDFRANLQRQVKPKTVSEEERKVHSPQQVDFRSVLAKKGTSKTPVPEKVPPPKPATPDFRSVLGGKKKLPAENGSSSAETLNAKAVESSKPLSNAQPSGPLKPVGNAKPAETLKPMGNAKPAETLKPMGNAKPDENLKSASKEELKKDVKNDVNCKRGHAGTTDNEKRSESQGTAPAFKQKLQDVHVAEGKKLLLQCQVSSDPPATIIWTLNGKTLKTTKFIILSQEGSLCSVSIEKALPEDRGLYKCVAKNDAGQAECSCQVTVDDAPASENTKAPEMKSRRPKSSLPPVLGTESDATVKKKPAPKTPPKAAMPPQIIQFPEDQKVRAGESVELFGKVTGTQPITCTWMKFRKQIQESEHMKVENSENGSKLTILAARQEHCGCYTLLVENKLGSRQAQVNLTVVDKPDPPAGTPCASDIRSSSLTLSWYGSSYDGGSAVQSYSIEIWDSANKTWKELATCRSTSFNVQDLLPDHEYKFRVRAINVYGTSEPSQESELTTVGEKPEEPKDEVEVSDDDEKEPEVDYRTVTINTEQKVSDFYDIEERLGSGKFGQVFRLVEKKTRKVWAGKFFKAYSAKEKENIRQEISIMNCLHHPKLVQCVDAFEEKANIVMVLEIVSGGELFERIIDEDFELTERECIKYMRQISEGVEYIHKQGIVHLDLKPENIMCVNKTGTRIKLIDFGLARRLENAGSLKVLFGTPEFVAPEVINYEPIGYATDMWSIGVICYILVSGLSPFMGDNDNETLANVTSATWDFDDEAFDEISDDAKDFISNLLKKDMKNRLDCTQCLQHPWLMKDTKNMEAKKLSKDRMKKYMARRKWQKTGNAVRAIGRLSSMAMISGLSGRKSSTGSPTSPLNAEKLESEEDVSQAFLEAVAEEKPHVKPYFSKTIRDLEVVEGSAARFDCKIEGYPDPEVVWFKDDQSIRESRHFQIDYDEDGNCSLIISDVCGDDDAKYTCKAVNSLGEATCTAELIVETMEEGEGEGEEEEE
Sequence of MAPKAPK2 (Homo sapiens, UniProt P49137) (P49137 whole entry): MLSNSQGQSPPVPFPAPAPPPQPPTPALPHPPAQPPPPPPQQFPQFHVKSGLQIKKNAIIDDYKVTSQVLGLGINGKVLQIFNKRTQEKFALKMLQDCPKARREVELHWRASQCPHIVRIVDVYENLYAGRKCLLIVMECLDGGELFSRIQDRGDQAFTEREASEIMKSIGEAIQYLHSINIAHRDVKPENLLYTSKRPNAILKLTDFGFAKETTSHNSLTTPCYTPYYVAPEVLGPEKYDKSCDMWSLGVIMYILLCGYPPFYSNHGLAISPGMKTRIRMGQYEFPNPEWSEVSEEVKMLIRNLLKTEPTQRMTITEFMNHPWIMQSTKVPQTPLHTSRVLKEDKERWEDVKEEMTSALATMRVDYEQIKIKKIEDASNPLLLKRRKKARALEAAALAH
Sequence of MAPKAPK2 (Homo sapiens, UniProt P49137) (Q16539 2-360 partner limits assumed): as the sequence (Q16539 2-360 partner limits assumed) above
Sequence of MAPKAPK3 (Q16644 whole entry): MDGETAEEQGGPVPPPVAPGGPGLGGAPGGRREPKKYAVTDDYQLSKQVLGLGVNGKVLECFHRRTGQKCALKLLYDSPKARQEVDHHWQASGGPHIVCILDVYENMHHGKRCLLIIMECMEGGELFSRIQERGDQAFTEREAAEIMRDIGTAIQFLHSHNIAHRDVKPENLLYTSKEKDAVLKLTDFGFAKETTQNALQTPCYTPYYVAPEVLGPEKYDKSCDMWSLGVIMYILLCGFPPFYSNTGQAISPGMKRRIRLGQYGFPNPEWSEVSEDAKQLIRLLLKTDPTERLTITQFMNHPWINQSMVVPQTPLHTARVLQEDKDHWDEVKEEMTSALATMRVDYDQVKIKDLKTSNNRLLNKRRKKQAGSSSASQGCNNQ
Sequence of MAPKAPK3 (Q16539 2-360 partner limits assumed): as the sequence (Q16539 2-360 partner limits assumed) above

| Compound | ΔTm at 20 µM ([1]; HL-60, living HL-60 cells, 20 µM inhibitor, read-out: ΔTm to DMSO (MAPK14)) [°C] | Tm ([1]; MAPK14, living cells) [°C] | ΔTm to DMSO ([1]; MAPK14, living cells) [°C] | Tm (MAPK14) ([1]; living HL-60 cells, 20 µM inhibitor) | ΔTm to DMSO (MAPK14) ([1]; living HL-60 cells, 20 µM inhibitor, 20 µM) [°C] | Hill slope (MAPK14) [2] | Hill slope (MAPKAPK3) [3] | Hill slope (MAPKAPK2) [4] | EC50 [5] [nM] | Hill slope (MYLK) [5, 9] | EC50 [6] [nM] | Hill slope (MRPS34) [6, 9] | activity against MAPKAPK2 [7] | activity against MAPK14 [8] |
| --- | --- | --- | --- | --- | --- | --- | --- | --- | --- | --- | --- | --- | --- | --- |
| Cn1c(NC[C@@H](N)Cc2ccccc2)nc(-c2ccncc2)c(-c2ccc3ccccc3c2)c1=O [AMG-548] | 14.8 | 60.58 | 14.76 | 60.6 ± 0.5 °C and 60.58 °C | 14.76 | 0.57 | 0.68 | 0.72 | 6.03 | 0.44 | 60.3 | 0.26 |  |  |
| C[S+]([O-])c1ccc(-c2nc(-c3ccncc3)c(-c3ccc(F)cc3)[nH]2)cc1 (centres unmarked) [SB203580] |  |  |  |  |  |  |  |  |  |  |  |  | inactivity | high activity |
